In assay [1] the target is T1, EGFR (Homo sapiens, UniProt P00533).
T1 construct: expressed in transfected cells; host or cells: NIH3T3 clone C7 (EGFR/C7, Honegger et al.)
The assay can be described thus: EGFR Whole Cell Kinase Assay (ELISA). The format is cell-based. The note with it: EGFR/C7 (NIH3T3) cells, 25 nM EGF. The source says:
(§1) The following examples illustrate the ability of the exemplary compounds to inhibit receptor tyrosine kinases, such as HER2 and/or EGFR. The following target cells were used for cellular kinase assays: NIH3T3 clone C7 (Honegger et al., supra) engineered to over-express human EGF receptor; NIH3T3 cells engineered to over-express a chimeric receptor containing the EGFR extracellular domain and the HER2 intracellular kinase domain; the human mammary carcinoma line BT474 (ATCC HTB2) expressing HER2; and the human glioblastoma line U1242 that expresses PDGFR-beta. Growth assays were carried out using human mammary epithelial SKBR3 (ATCC HTB30) cells (SKBR3 cells over-express HER2), SKOV3 (ATCC HTB77) human ovarian cancer cell line (SKOV3 cells also over-express HER2), A431 cells (A431 cells over-express EGFR) MCF7 human breast carcinoma cells, MCF7 cells overexpressing the HER2 kinase (MCF7-HER2), NIH3T3 cells, and NIH3T3 cells overexpressing the HER2 kinase (3T3-HER2.
EGFR Whole Cell Kinase Assay
EGFR kinase activity (EGFR-3T3 assay) in whole cells was measured as described below:
A. Coat ELISA plates (Corning, 96 well, Cat. #25805-96) with 05-101 antibody at 0.5 μg per well in PBS, 150 μl final volume/well, and store overnight at 4° C. Coated plates are good for up to 10 days when stored at 4° C.
B. On day of use, remove coating buffer and replace with blocking buffer (5% Carnation Instant NonFat Dry Milk in PBS). Incubate the plate, shaking, at room temperature (about 23° C. to 25° C.) for 30 minutes. Just prior to use, remove blocking buffer and wash plate 4 times with TBST buffer.
A. EGFR/C7 cell line (Honegger, et al., supra) can be used for this assay.
B. Choose dishes having 80-90% confluence for the experiment. Trypsinize cells and stop reaction by adding 10% CS DMEM medium. Suspend cells in DMEM medium (10% CS DMEM medium) and centrifuge once at 1000 rpm, and once at room temperature for 5 minutes.
(§2) C. Resuspend cells in seeding medium (DMEM, 0.5% bovine serum), and count the cells using trypan blue. Viability above 90% is acceptable. Seed cells in DMEM medium (0.5% bovine serum) at a density of 10,000 cells per well, 100 μl per well, in a 96 well microtiter plate. Incubate seeded cells in 5% CO2 at 37° C. for about 40 hours.
A. Check seeded cells for contamination using an inverted microscope. Dilute drug stock (10 mg/ml in DMSO) 1:10 in DMEM medium, then transfer 5 μl to a test well for a final drug dilution of 1:200 and a final DMSO concentration of […]. Control wells receive DMSO alone. Incubate in 5% CO2 at 37° C. for one hour.
B. Prepare EGF ligand: dilute stock EGF in DMEM so that upon transfer of 10 μl dilute EGF (1:12 dilution), 25 nM final concentration is attained.
D. After two hours incubation with drug, add prepared EGF ligand to cells, 10 μl per well, to yield a final concentration of 25 nM. Control wells receive DMEM alone. Incubate, shaking, at room temperature, for 5 minutes.
(§3) E. Remove drug, EGF, and DMEM. Wash cells twice with PBS. Transfer HNTG* to cells, 100 μl per well. Place on ice for 5 minutes. Meanwhile, remove blocking buffer from other ELISA plate and wash with TBST as described above.
(§4) F. With a pipette tip securely fitted to a micropipettor, scrape cells from plate and homogenize cell material by repeatedly aspirating and dispensing the HNTG* lysis buffer. Transfer lysate to a coated, blocked, and washed ELISA plate. Incubate shaking at room temperature for one hour.
(§5) G. Remove lysate and wash 4 times with TBST. Transfer freshly diluted anti-Ptyr antibody to ELISA plate at 100 μl per well. Incubate shaking at room temperature for 30 minutes in the presence of the anti-Ptyr antiserum (1:3000 dilution in TBST).
H. Remove the anti-Ptyr antibody and wash 4 times with TBST. Transfer the freshly diluted TAGO 30 anti-rabbit IgG antibody (anti-rabbit IgG antibody: 1:3000 dilution in TBST) to the ELISA plate at 100 μl per well. Incubate shaking at room temperature for 30 minutes. […]
For orientation: ELISA stands for enzyme-linked immunosorbent assay.

The test system of assay [2] is chimeric receptor containing the EGFR extracellular domain and the HER2 intracellular kinase domain. The assay can be described thus: EGFR-HER2 chimeric receptor whole cell kinase ELISA (3T3). The format is cell-based. To be noted: NIH3T3 cells with EGFR/HER2 chimera, 100 nM EGF.
Text: as §1
EGFR-HER2 Chimeric Recetor
HER2 kinase activity (EGFR-3T3) in whole cells was measured as described below:
The materials and regeants are identical to these used in example 1, the EGFR whole cell kinase assay.
A. Coat ELISA plates (Corning, 96 well, Cat. #25805-96) with 05-101 antibody at 0.5 μg per well in PBS, 100 μl final volume/well, and store overnight at 4° C. Coated plates are good for up to 10 days when stored at 4° C.
B. On day of use, remove coating buffer and replace with 100 μl blocking buffer (5% Carnation Instant Non-Fat Dry Milk in PBS). Incubate the plate, shaking, at room temperature (about 23° C. to 25° C.) for 30 minutes. Just prior to use, remove blocking buffer and wash plate 4 times with TBST buffer.
A. An NIH3T3 cell line overexpressing a chimeric receptor containing the EGFR extracellular domain and extracellular HER2 kinase domain can be used for this assay.
B. Choose dishes having 80-90% confluence for the experiment. Trypsinize cells and stop reaction by adding 10% fetal bovine serum. Suspend cells in DMEM medium (10% CS DMEM medium) and centrifuge once at 1500 rpm, at room temperature for 5 minutes.
as §2
A. Check seeded cells for contamination using an inverted microscope. Dilute drug stock (10 mg/ml in DMSO) 1:10 in DMEM medium, then transfer 5 l to a […] well for a final drug dilution of 1:200 and a final DMSO concentration of 1%. Control wells receive DMSO alone. Incubate in 5% CO2 at 37° C. for two hours.
B. Prepare EGF ligand: dilute stock EGF in DMEM so that upon transfer of 10 μl dilute EGF (1:12 dilution), 100 nM final concentration is attained.
D. After 120 minutes incubation with drug, add prepared […] ligand to cells, 10 μl per well, to a final concentration of 100 nM. Control wells receive DMEM alone. Incubate, shaking, at room temperature, for 5 minutes.
as §3, §4, §5
H. Remove the anti-Ptyr antibody and wash 4 times with TBST. […]

Our source for the IC50 values is US5891917A, “Certain acrylonitrile-sulfonamide derivatives” (Sugen, Inc., priority 1997, dated 1999).

Structures are written as SMILES.

T1 sequence (P00533 25-1210): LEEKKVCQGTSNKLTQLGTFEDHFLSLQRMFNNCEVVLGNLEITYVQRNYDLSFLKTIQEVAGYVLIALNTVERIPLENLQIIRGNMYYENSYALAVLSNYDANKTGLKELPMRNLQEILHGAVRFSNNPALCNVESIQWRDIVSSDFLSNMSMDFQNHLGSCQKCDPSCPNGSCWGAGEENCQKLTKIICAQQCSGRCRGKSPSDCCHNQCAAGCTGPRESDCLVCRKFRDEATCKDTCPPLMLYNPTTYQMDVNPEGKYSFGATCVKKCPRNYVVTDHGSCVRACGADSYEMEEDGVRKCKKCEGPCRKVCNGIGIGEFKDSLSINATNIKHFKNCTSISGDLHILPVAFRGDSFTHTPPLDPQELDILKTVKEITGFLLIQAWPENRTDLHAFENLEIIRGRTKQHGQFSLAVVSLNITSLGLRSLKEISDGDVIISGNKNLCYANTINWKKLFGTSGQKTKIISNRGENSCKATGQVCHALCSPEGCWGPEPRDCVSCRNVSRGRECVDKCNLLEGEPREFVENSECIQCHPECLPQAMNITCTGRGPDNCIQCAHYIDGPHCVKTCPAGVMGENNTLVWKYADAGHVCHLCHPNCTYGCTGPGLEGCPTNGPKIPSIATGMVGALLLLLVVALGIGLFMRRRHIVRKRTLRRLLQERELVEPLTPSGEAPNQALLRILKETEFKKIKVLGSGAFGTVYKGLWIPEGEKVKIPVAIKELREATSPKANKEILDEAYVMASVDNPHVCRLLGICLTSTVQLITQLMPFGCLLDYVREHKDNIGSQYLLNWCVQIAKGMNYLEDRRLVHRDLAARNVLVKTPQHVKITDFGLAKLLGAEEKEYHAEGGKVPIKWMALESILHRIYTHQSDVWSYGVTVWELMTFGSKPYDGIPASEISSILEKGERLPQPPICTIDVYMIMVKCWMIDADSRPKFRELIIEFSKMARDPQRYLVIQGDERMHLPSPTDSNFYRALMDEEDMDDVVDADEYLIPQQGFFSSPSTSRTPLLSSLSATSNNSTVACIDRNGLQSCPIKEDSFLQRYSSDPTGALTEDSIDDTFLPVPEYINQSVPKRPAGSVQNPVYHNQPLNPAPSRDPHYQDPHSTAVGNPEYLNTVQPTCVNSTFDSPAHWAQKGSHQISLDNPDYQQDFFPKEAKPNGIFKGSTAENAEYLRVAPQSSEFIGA

On to `CC(C)(C)c1cc(/C=C(\C#N)S(=O)(=O)c2cccs2)cc(C(C)(C)C)c1O` [Compound 742], for which the values for the IC50 in assay [1] and in assay [2] were above 100 µM and 27.8 µM, respectively. For `CC(C)(C)c1cc(/C=C(\C#N)S(=O)(=O)c2ccc(F)cc2)cc(C(C)(C)C)c1O` [Compound 740] the same measures were above 100 µM and above 100 µM. For `N#C/C(=C\c1ccc(O)cc1Cl)S(=O)(=O)NCc1ccccc1` [Compound 733] the same measures were above 100 µM and 83.5 µM.

For the compound `Cc1cc(/C=C(\C#N)S(=O)(=O)c2ccc(F)cc2)cc(C)c1O` [Compound 744], in assay [1], the IC50 was above 100 µM. Turning to `CC(C)c1cc(/C=C(\C#N)S(=O)(=O)c2cccs2)cc(C(C)C)c1O` [Compound 737], the 50% inhibitory concentration (IC50) is 77 µM in assay [1] and 32 µM in assay [2]. As to `CC(C)c1cc(/C=C(\C#N)S(=O)(=O)Cc2cccc(C(F)(F)F)c2)cc(C(C)C)c1O` [Compound 736], the IC50 in assay [1] turned out to be 100 µM; in assay [2], 22.7 µM. The corresponding values for `CC(C)c1cc(/C=C(\C#N)S(=O)(=O)NCc2ccccc2)cc(C(C)C)c1O` [Compound 732] are 58 µM and 20.9 µM.

For `CC(C)c1cc(/C=C(\C#N)S(=O)(=O)c2ccc(F)cc2)cc(C(C)C)c1O` [Compound 741, (E)-3-(3,5-Diisopropyl-4-hydroxyphenyl)-2-(4-fluorophenylsulfonyl)acrylonitrile], the half-maximal inhibitory concentration (IC50) in assay [1] was determined as 52.7 µM; in assay [2], 13.9 µM. Consider `CC(C)c1cc(/C=C(\C#N)S(=O)(=O)/C(C#N)=C/c2cc(C(C)C)c(O)c(C(C)C)c2)cc(C(C)C)c1O` [Compound 745], for which the IC50 in assay [1] is below 100 µM. Regarding `CC(C)c1cc(/C=C(\C#N)S(=O)(=O)c2ccsc2)cc(C(C)C)c1O` [Compound 738], the results for the IC50 in assay [1] and in assay [2] were 79.2 µM and 36.4 µM, respectively.

As for `CC(C)c1cc(/C=C(\C#N)S(=O)(=O)c2ccccc2)cc(C(C)C)c1O` [Compound 731], the half-maximal inhibitory concentration (IC50) is 73.2 µM in assay [1] and 17.2 µM in assay [2]. For `Cc1cc(/C=C(\C#N)S(=O)(=O)Cc2cccc(C(F)(F)F)c2)cc(C)c1O` [Compound 739], the half-inhibitory concentration (IC50) in assay [1] and in assay [2] was above 100 µM throughout. In the case of `N#C/C(=C\c1ccc(O)cc1Cl)S(=O)(=O)NCCCc1ccccc1` [Compound 734], the values for the IC50 in assay [1] and in assay [2] were above 100 µM and 21.7 µM, respectively. Consider `CC(C)(C)c1cc(/C=C(\C#N)S(=O)(=O)c2ccsc2)cc(C(C)(C)C)c1O` [Compound 746], for which the IC50 in assay [1] was above 100 µM; in assay [2], 8.1 µM. For `CC(C)(C)c1cc(/C=C(\C#N)S(=O)(=O)Cc2cccc(C(F)(F)F)c2)cc(C(C)(C)C)c1O` [Compound 735], the IC50 in assay [2] was 57.4 µM. `N#C/C(=C\c1ccc(O)c(O)c1)S(=O)(=O)c1cccs1` [Compound 743, (E)-3-(3,4-Dihydroxyphenyl)-2-[(thien-2-yl)sulfonyl]acrylonitrile] yielded an IC50 in assay [1] above 100 µM.

Usually IC50 stands for the midpoint of a concentration-inhibition curve.
